Results from US9326973B2, “Hepatitis C virus inhibitors” (priority 2012, dated 2016).

system: HCV replicon, genotype-1a variant with glutamine 30 changed to glutamate in the NS5A protein; assay: microbe, parasite or virus in culture; format: cell-based, HCV genotype 1a; conditions: HCV replicon genotype 1a Q30E (Q→E) variant; test compound titrated with an NS5A-targeting compound (BMS-790052 fixed at 200 nM); ranking of synergist activity
Summary of the method: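 Synergy was assessed by combining several fixed amounts of an NS5A-targeting compound with a titration of the second compound of interest.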

SMILES	Fold-Synergistic 1a (Q30E) [fold]
CC(C)(C)[C@H](NC(=O)C(F)(F)C(O)c1ccccc1)c1nc(-c2ccc(-c3ccc(-c4c[nH]c([C@@H](NC(=O)C(F)(F)C(O)c5ccccc5)C(C)(C)C)n4)cc3)cc2)c[nH]1 (stereo partly drawn) [Compound P-168]	>100
CC(C)(C)[C@H](NC(=O)C(O)(C1CC1)C1CC1)c1nc(-c2ccc(-c3ccc(-c4c[nH]c([C@@H](NC(=O)C(O)(C5CC5)C5CC5)C(C)(C)C)n4)cc3)cc2)c[nH]1 [Compound P-169]	>100
CC(C)(C)[C@H](NC(=O)[C@@]12CC[C@@](C)(C(=O)O1)C2(C)C)c1nc(-c2ccc(-c3ccc(-c4c[nH]c([C@@H](NC(=O)[C@@]56CC[C@@](C)(C(=O)O5)C6(C)C)C(C)(C)C)n4)cc3)cc2)c[nH]1 [Compound P-170]	>100
CC(C)(C)[C@H](NC(=O)[C@@H]1CCC[C@@H]1O)c1nc(-c2ccc(-c3ccc(-c4c[nH]c([C@@H](NC(=O)[C@@H]5CCC[C@@H]5O)C(C)(C)C)n4)cc3)cc2)c[nH]1 [Compound P-171]	>100
CC(C)(C)[C@H](NC(=O)C(F)(F)Sc1ccccc1)c1nc(-c2ccc(-c3ccc(-c4c[nH]c([C@@H](NC(=O)C(F)(F)Sc5ccccc5)C(C)(C)C)n4)cc3)cc2)c[nH]1 [Compound P-172]	>100
CC(C)(C)[C@H](NC(=O)C1CCCCS1)c1nc(-c2ccc(-c3ccc(-c4c[nH]c([C@@H](NC(=O)C5CCCCS5)C(C)(C)C)n4)cc3)cc2)c[nH]1 (stereo partly drawn) [Compound P-173]	>100
CC(C)(NC1CCCCC1)C(=O)N[C@H](c1nc(-c2ccc(-c3ccc(-c4c[nH]c([C@@H](NC(=O)C(C)(C)NC5CCCCC5)C(C)(C)C)n4)cc3)cc2)c[nH]1)C(C)(C)C [Compound P-174]	>100
CC(C)(C)NC(C)(C)C(=O)N[C@H](c1nc(-c2ccc(-c3ccc(-c4c[nH]c([C@@H](NC(=O)C(C)(C)NC(C)(C)C)C(C)(C)C)n4)cc3)cc2)c[nH]1)C(C)(C)C [Compound P-175]	>100
CC(C)(C)[C@H](NC(=O)[C@@]1(C)CCCCO1)c1nc(-c2ccc(-c3ccc(-c4c[nH]c([C@@H](NC(=O)[C@@]5(C)CCCCO5)C(C)(C)C)n4)cc3)cc2)c[nH]1 [Compound P-176]	>100
CC(C)(C)[C@H](NC(=O)C1(CO)CCCCO1)c1nc(-c2ccc(-c3ccc(-c4c[nH]c([C@@H](NC(=O)C5(CO)CCCCO5)C(C)(C)C)n4)cc3)cc2)c[nH]1 (stereo partly drawn) [Compound P-177]	>100
CC(C)(C)[C@H](NC(=O)C1(CF)CCCCO1)c1nc(-c2ccc(-c3ccc(-c4c[nH]c([C@@H](NC(=O)C5(CF)CCCCO5)C(C)(C)C)n4)cc3)cc2)c[nH]1 (stereo partly drawn) [Compound P-178]	>100
CC(C)(C)[C@H](NC(=O)C1(C(F)F)CCCCO1)c1nc(-c2ccc(-c3ccc(-c4c[nH]c([C@@H](NC(=O)C5(C(F)F)CCCCO5)C(C)(C)C)n4)cc3)cc2)c[nH]1 (stereo partly drawn) [Compound P-179]	>100
CC(C)(C)[C@H](NC(=O)C1(CO)CCCCO1)c1nc(-c2ccc(-c3ccc(-c4c[nH]c([C@@H](NC(=O)C5(CO)CCCCO5)C(C)(C)C)n4)cc3)cc2)c[nH]1 (stereo partly drawn) [Compound P-180]	>100
CC(C)(C)[C@H](NC(=O)C1(CO)CCCCO1)c1nc(-c2ccc(-c3ccc(-c4c[nH]c([C@@H](NC(=O)C5(CO)CCCCO5)C(C)(C)C)n4)cc3)cc2)c[nH]1 (stereo partly drawn) [Compound P-181]	>100
CC(C)(C)[C@H](NC(=O)C1(CO)CCCCO1)c1nc(-c2ccc(-c3ccc(-c4c[nH]c([C@@H](NC(=O)C5(CO)CCCCO5)C(C)(C)C)n4)cc3)cc2)c[nH]1 (stereo partly drawn) [Compound P-182]	>100
COCC1(C(=O)N[C@H](c2nc(-c3ccc(-c4ccc(-c5c[nH]c([C@@H](NC(=O)C6(COC)CCCCO6)C(C)(C)C)n5)cc4)cc3)c[nH]2)C(C)(C)C)CCCCO1 (stereo partly drawn) [Compound P-183]	>100
CC(C)[C@H](NC(=O)[C@@]1(C)CCCCO1)c1nc(-c2ccc(-c3ccc(-c4c[nH]c([C@@H](NC(=O)[C@@]5(C)CCCCO5)C(C)C)n4)cc3)cc2)c[nH]1 [Compound P-184]	>100
O=C(N1CCC[C@H]1c1ncc(-c2ccc(-c3ccc(-c4cnc([C@@H]5CCCN5C(=O)C5(O)CCC(F)(F)CC5)[nH]4)cc3)cc2)[nH]1)C1(O)CCC(F)(F)CC1 [Compound P-185]	>100
C[C@]1(C(=O)N2CCC[C@H]2c2ncc(-c3ccc(-c4ccc(-c5cnc([C@@H]6CCCN6C(=O)[C@@]6(C)CCC(F)(F)CO6)[nH]5)cc4)cc3)[nH]2)CCC(F)(F)CO1 [Compound P-186]	<10
CC1([C@H](NC(=O)[C@@]2(C)CCCCO2)c2nc(-c3ccc(-c4ccc(-c5c[nH]c([C@@H](NC(=O)[C@@]6(C)CCCCO6)C6(C)CC6)n5)cc4)cc3)c[nH]2)CC1 [Compound P-187]	>100
O=C(c1ccccc1)N1CCC[C@H]1c1ncc(-c2ccc(-c3ccc(-c4cnc([C@@H]5CCCN5C(=O)c5ccccc5)[nH]4)cc3)cc2)[nH]1 [Compound S-106]	<10

SMILES	Fold-Synergistic 1a (Q30E) [fold]
O=C(Cc1ccccc1)N1CCC[C@H]1c1ncc(-c2ccc(-c3ccc(-c4cnc([C@@H]5CCCN5C(=O)Cc5ccccc5)[nH]4)cc3)cc2)[nH]1 [Compound S-107]	<10
CCC(=O)N1CCC[C@H]1c1ncc(-c2ccc(-c3ccc(-c4cnc([C@@H]5CCCN5C(=O)CC)[nH]4)cc3)cc2)[nH]1 [Compound S-108]	<10
O=C(C1CC1)N1CCC[C@H]1c1ncc(-c2ccc(-c3ccc(-c4cnc([C@@H]5CCCN5C(=O)C5CC5)[nH]4)cc3)cc2)[nH]1 [Compound S-109]	<10
O=C(CC1CC1)N1CCC[C@H]1c1ncc(-c2ccc(-c3ccc(-c4cnc([C@@H]5CCCN5C(=O)CC5CC5)[nH]4)cc3)cc2)[nH]1 [Compound S-110]	<10
O=C([C@H]1CCCO1)N1CCC[C@H]1c1ncc(-c2ccc(-c3ccc(-c4cnc([C@@H]5CCCN5C(=O)[C@H]5CCCO5)[nH]4)cc3)cc2)[nH]1 [Compound S-111]	<10
CC(=O)N1CCC[C@H]1c1ncc(-c2ccc(-c3ccc(-c4cnc([C@@H]5CCCN5C(C)=O)[nH]4)cc3)cc2)[nH]1 [Compound S-113]	<10
O=C(c1ccccc1Oc1ccccc1)N1CCC[C@H]1c1ncc(-c2ccc(-c3ccc(-c4cnc([C@@H]5CCCN5C(=O)c5ccccc5Oc5ccccc5)[nH]4)cc3)cc2)[nH]1 [Compound S-114]	<10
COC(=O)c1ccccc1C(=O)N1CCC[C@H]1c1ncc(-c2ccc(-c3ccc(-c4cnc([C@@H]5CCCN5C(=O)c5ccccc5C(=O)OC)[nH]4)cc3)cc2)[nH]1 [Compound S-115]	<10
O=C(c1cccc(Oc2ccccc2)c1)N1CCC[C@H]1c1ncc(-c2ccc(-c3ccc(-c4cnc([C@@H]5CCCN5C(=O)c5cccc(Oc6ccccc6)c5)[nH]4)cc3)cc2)[nH]1 [Compound S-116]	<10
O=C(c1ccc(-c2ccccc2)cc1)N1CCC[C@H]1c1ncc(-c2ccc(-c3ccc(-c4cnc([C@@H]5CCCN5C(=O)c5ccc(-c6ccccc6)cc5)[nH]4)cc3)cc2)[nH]1 [Compound S-117]	>10
Cc1onc(-c2ccccc2)c1C(=O)N1CCC[C@H]1c1ncc(-c2ccc(-c3ccc(-c4cnc([C@@H]5CCCN5C(=O)c5c(-c6ccccc6)noc5C)[nH]4)cc3)cc2)[nH]1 [Compound S-118]	<10
O=C(c1cccc2ccccc12)N1CCC[C@H]1c1ncc(-c2ccc(-c3ccc(-c4cnc([C@@H]5CCCN5C(=O)c5cccc6ccccc56)[nH]4)cc3)cc2)[nH]1 [Compound S-119]	>10
O=C(c1cc2ccccc2[nH]1)N1CCC[C@H]1c1ncc(-c2ccc(-c3ccc(-c4cnc([C@@H]5CCCN5C(=O)c5cc6ccccc6[nH]5)[nH]4)cc3)cc2)[nH]1 [Compound S-120]	<10
O=C(c1ccc2c(c1)OCO2)N1CCC[C@H]1c1ncc(-c2ccc(-c3ccc(-c4cnc([C@@H]5CCCN5C(=O)c5ccc6c(c5)OCO6)[nH]4)cc3)cc2)[nH]1 [Compound S-121]	<10
O=C(c1cc2ccccc2o1)N1CCC[C@H]1c1ncc(-c2ccc(-c3ccc(-c4cnc([C@@H]5CCCN5C(=O)c5cc6ccccc6o5)[nH]4)cc3)cc2)[nH]1 [Compound S-122]	>10
O=C(c1ccc2ccccc2n1)N1CCC[C@H]1c1ncc(-c2ccc(-c3ccc(-c4cnc([C@@H]5CCCN5C(=O)c5ccc6ccccc6n5)[nH]4)cc3)cc2)[nH]1 [Compound S-123]	>100
O=C(c1cnc2ccccc2c1)N1CCC[C@H]1c1ncc(-c2ccc(-c3ccc(-c4cnc([C@@H]5CCCN5C(=O)c5cnc6ccccc6c5)[nH]4)cc3)cc2)[nH]1 [Compound S-124]	>10
O=C(c1ccnc2ccccc12)N1CCC[C@H]1c1ncc(-c2ccc(-c3ccc(-c4cnc([C@@H]5CCCN5C(=O)c5ccnc6ccccc56)[nH]4)cc3)cc2)[nH]1 [Compound S-125]	<10
O=C(c1cnc2ccccc2n1)N1CCC[C@H]1c1ncc(-c2ccc(-c3ccc(-c4cnc([C@@H]5CCCN5C(=O)c5cnc6ccccc6n5)[nH]4)cc3)cc2)[nH]1 [Compound S-126]	>100
N#Cc1ccccc1C(=O)N1CCC[C@H]1c1ncc(-c2ccc(-c3ccc(-c4cnc([C@@H]5CCCN5C(=O)c5ccccc5C#N)[nH]4)cc3)cc2)[nH]1 [Compound S-127]	<10
O=C(c1cccc(-c2ccccc2)c1)N1CCC[C@H]1c1ncc(-c2ccc(-c3ccc(-c4cnc([C@@H]5CCCN5C(=O)c5cccc(-c6ccccc6)c5)[nH]4)cc3)cc2)[nH]1 [Compound S-128]	>10
